Reference: patent publication US4525589A, “Isoquinolinesulfonyl derivatives” (Asahi Kasei Kogyo Kabushiki Kaisha, priority 1981, dated 1985)

Assays:
[1] = test system: vertebral artery; test: Effect on blood flow volume of vertebral artery of dog; type: in vivo, dog of mixed breed; details: Canis lupus familiaris; 1 mg/Kg intravenous; anesthetized dog; read-out: Increased Blood Flow Volume in Vertebral Artery
Description: (§1) The effect of the isoquinolinesulfonyl derivatives and the pharmaceutically acceptable acid addition salts of this invention on the vasodilatation of the femoral and vertebral arteries can be measured by anesthetizing a dog of mixed breed weighting 8 to 15 Kg by an intravenous administration of 35 mg/Kg of pentbarbital, providing an acute type probe (a product of Nippon Koden K.K., Japan) with the femoral and vertebral arteries, administering the isoquinolinesulfonyl derivatives and the pharmaceutically acceptable acid addition salts to the femoral vein through a polyethylene tube inserted into the femoral vein side chain and measuring the blood flow volume with an electromagnetic flowmeter (a product of Nippon Koden K.K., Japan, "MF-27"). Among the isoquinolinesulfonyl compounds of Formula (I) of this invention, those with l=0 and the [drawing 37] group show a high action for increasing blood flow and simultaneously a selectivity to vertebral arteries. For example, when 1 mg/Kg of 1-(5-isoquinolinesulfonyl)piperazine, i.e., Compound (35) was intravenously administered, the increased blood flow volumes in the vertebral artery and in the femoral artery were 98% and 65%, respectively. Also the isoquinolinesulfonyl compounds of Formula (I) of this invention with l=1 and one of the R2 and R3 groups=a hydrogen atom show a continuing blood flow increase. With 1 mg/Kg of N-(2-aminoethyl)-5-isoquinolinesulfonamide, i.e., Compound (1), an increase in the blood flow volume in the vertebral artery was continued for at least 30 minutes.
(§2) The effect on the vasodilatation of the femoral and vertebral arteries was measured by anesthetizing a dog of mixed breed weighing 8 to 15 Kg by an intravenous administration of 35 mg/Kg of pentabarbital, providing an acute type probe (a product of Nippon Koden K.K., Japan) with the femoral and vertebral arteries, administering the 5-isoquinolinesulfonyl derivatives and their pharmaceutically acceptable acid addition salts to the femoral vein through a polyethylene tube inserted into the femoral vein side chain and measuring the blood flow volume with an electromagnetic blood flowmeter (a product of Nippon Koden K.K., Japan, "MF-27").

[2] = test system: femoral artery; test: Effect on blood flow volume of femoral artery of dog; type: in vivo, dog of mixed breed; details: Canis lupus familiaris, iv, 1 mg/Kg intravenous; anesthetized dog; read-out: Increased Blood Flow Volume in Femoral Artery
Description: as §1, §2

[3] = Acute toxicity, intravenous administration to male ddY-strain mice; details: mouse, in vivo
Description: The acute toxicity of the 5-isoquinolinesulfonyl derivatives and their pharmaceutically acceptable acid addition salts were measured by giving male ddY-strain mice an intravenous administration.

O=S(=O)(c1cccc2cnccc12)N1CCNCC1 [Compound 35]
change in vivo at 1 mg/kg [1]: 98%
change in vivo at 1 mg/kg [2]: 69%
LD50 [3]: 29 mg/kg

CN1CCN(S(=O)(=O)c2cccc3cnccc23)CC1 [Compound 36]
change in vivo at 1 mg/kg [1]: 63%
change in vivo at 1 mg/kg [2]: 35%
LD50 [3]: 94 mg/kg

CC1CN(S(=O)(=O)c2cccc3cnccc23)CCN1 (stereo not drawn) [Compound 37]
change in vivo at 1 mg/kg [1]: 90%
change in vivo at 1 mg/kg [2]: 65%
LD50 [3]: 89 mg/kg

CC1CN(S(=O)(=O)c2cccc3cnccc23)C(C)CN1 (stereo not drawn) [Compound 40]
change in vivo at 1 mg/kg [1]: 110%
change in vivo at 1 mg/kg [2]: 50%
LD50 [3]: 42 mg/kg

CC(C)CC1CN(S(=O)(=O)c2cccc3cnccc23)CCN1 (stereo not drawn) [Compound 46]
change in vivo at 1 mg/kg [1]: 55%
change in vivo at 1 mg/kg [2]: 32%
LD50 [3]: 130 mg/kg

CCCCCCN1CCN(S(=O)(=O)c2cccc3cnccc23)CC1 [Compound 51]
change in vivo at 1 mg/kg [1]: 68%
change in vivo at 1 mg/kg [2]: 39%
LD50 [3]: 108 mg/kg

O=S(=O)(c1cccc2cnccc12)N1CCN(CC=Cc2ccccc2)CC1 [Compound 59]
change in vivo at 1 mg/kg [1]: 49%
change in vivo at 1 mg/kg [2]: 25%
LD50 [3]: 145 mg/kg
